Assay results taken from patent publication US20230233500A1, “Gasdermin D (GSDMD) Succination for the Treatment of Inflammatory Disease” (University of Massachusetts, priority 2020, published 2023).
Structures can show the parent of a compound that is named as a salt.

Legend:
[1] = tested on: BMDMs; experiment: Pyroptosis in BMDMs after transfected LPS, Salmonella infection or poly (dA:dT); type: cell-based, mouse
Experimental: FIGS. 5A-G. Fumarate inhibits pyroptosis. (A) SYTOX Orange and Hoechst stained WT BMDMs treated with LPS for 2 hours, DMSO (vehicle) or fumarate (25 μM) for 1 hour and nigericin for 6 hours. (B) LDH assay conditioned medium from WT BMDMs treated with LPS for 3 hours, nigericin for the indicated times and DMSO (vehicle) or fumarate (25 μM) 15 minutes after each nigericin (10 μM) timepoint. (C) Immunoblot analysis of GSDMD in BMDMs treated as in […]. (D-E) LDH (D) and immunoblot analysis of GSDMD and β-actin in lysates (E) from WT BMDMs treated with DMSO (vehicle) or fumarate ([…]) for 1 hour followed by salmonella infection (MOI 10) for 6 hours. (F-G) LDH (F) and immunoblot analysis of GSDMD and β-actin in lysates (G) from WT BMDMs primed with LPS for 2 hours, followed by treatment with fumarate (25 μM) transfection with Poly (dA:dT) (1 μg). A, C, E, G are representative of 3 independent experiments. B, D, F are pooled data from 3 independent experiments. ***, P<0.001, ****, P<0.00001 (Two-way ANOVA). Error bars show means±SEM.
(§1) Cells were plated, treated and incubated in phenol red free medium. Following treatment medium was collected and assessed for LDH release using the CytoTox96 non-radioactive cytotoxicity assay (Promega) as per manufacturer's instructions. Kinetic cell death assays were performed using SytoxOrange and the Biotek Cytation5.
Cells were primed with LPS (100 ng/ml) from Escherichia coli serotype EH100 (ra) TLRgrade for 3 h followed by stimulation with the inflammasome activator Nigericin ([…]) for 1 h. For noncanonical inflammasome activation, cells were primed with […] Pam3CSK4 (Invivogen) for 2 h, followed by transfection of LPS (2 μg/ml) using Lipofectamine 2000 for 16 hours.

[2] = molecular target: T1, recombinant GSDMD (Homo sapiens, UniProt P57764); experiment: MMF-Yne labelling of recombinant GSDMD competed by fumarate, intact MS; type: binding; details: 1 μM GSDMD
T1 sequence (P57764 1-484): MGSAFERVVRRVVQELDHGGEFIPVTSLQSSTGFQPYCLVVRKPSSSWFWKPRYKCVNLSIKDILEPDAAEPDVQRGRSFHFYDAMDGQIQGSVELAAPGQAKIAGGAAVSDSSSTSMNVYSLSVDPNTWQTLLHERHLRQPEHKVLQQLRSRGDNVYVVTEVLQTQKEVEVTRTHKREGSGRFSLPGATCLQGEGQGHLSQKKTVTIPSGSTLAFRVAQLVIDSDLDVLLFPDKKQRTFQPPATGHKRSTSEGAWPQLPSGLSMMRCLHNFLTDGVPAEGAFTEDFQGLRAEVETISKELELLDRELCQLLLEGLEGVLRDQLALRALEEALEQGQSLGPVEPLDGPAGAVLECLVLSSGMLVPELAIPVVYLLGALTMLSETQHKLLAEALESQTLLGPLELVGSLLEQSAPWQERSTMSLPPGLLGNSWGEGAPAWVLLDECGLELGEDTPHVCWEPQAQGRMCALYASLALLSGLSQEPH
Experimental: FIGS. 11A-E. Fumarate binds to GSDMD. (A) Immunoblot analysis of MMF-Yne bound proteins using a streptavidin-IR dye. (B) Representative MS spectra of GSDMD identified in streptavidin pulldowns subjected to mass spec. (C-D) Immunoblot analysis (C) and densitometry analysis (D) of streptavidin-IR dye detecting MMF-Yne labelled recombinant GSDMD incubated with the indicated concentrations of fumarate and copper clicked using a biotin-azide. (E) Intact MS analysis of recombinant GSDMD (1 μM) incubated in a succination reaction with DMSO (vehicle) or fumarate (25 μM) for 2 hours. A-E Representative images from 2 independent experiments..
Intact mass analysis of GSDMD protein was carried out using an Acquity UPLC (Waters Corporation, Milford, Mass.) coupled to a Synapt G2-Si (Waters) quadrupole time-of-flight mass spectrometer fitted with an electrospray ionization source. Liquid chromatography was carried out with a 3.0×50 mm(4 μm) MAbPac RP column (Thermo Scientific, Waltham, Mass.) using mobile phase A and B containing 0.1% (v/v) formic acid in water, and 0.1% (v/v) formic acid in acetonitrile, respectively. A total of 0.6 μg sample was injected and the protein eluted using a linear gradient of 10 to 70% B over 7.0 minutes at a flow rate of 0.3 ml/min. […]

[3] = tested on: GSDMD-deficient BMDMs (GSDME); experiment: Cell death in GSDMD-deficient BMDMs; type: cell-based, mouse
Source text: FIGS. 3A-J. Fumarate targets GSDMD and Gasdermin E (GSDME). Kinetic cell death of WT and Gsdmd-BMDMs (A) or WT/GSDMD^−/− THP1 cells (B) treated as indicated. LDH and IL-1β release from WT and Gsdmd^−/− BMDMs (C-D). Immunoblot of GSDMD and GSDME in native and reduced cell lysates from BMDMs (E). Immunoblot of GSDME in streptavidin pulldown from clicked lysates (F). Representative Mass spectra of succinated GSDME (G-H). Immunoblot analysis of GSDMD and GSDME from WT and Gsdmcd^−/− BMDMs (I). A, B representative of three independent experiments. C, D, I pooled data from three independent experiments. E, F, J representative images from 3 independent experiments. ***, P<0.0001, […] (Two-way ANOVA). Error bars show means±SEM.
FIGS. 13A-B. Fumarate inhibits GSDMD and GSDME comparably. (A) Kinetic cell death data of WT (left-panel) and GSDMD−/− (right-panel) primary BMDMs with LPS for 2 hours, DMSO (vehicle) or fumarate (0-50 μM) followed by nigericin (10 μM) for 6 hours. (B) Immunoblot analysis of GSDMD, GSDME and -actin in cell lysates from WT and GSDMD−/− BMDMs treated as in (A).
as §1

## COC(=O)/C=C/C(=O)OC [Fumarate, Dimethyl fumarate]
[1]; LPS primed 2 hours, fumarate 25 μM, LDH and GSDMD immunoblot
  inhibitory effect on pyroptosis after poly (dA:dT): inhibitory effect
[1]; fumarate 25 μM 1 hour, MOI 10, 6 hours, LDH and GSDMD immunoblot
  inhibitory effect on pyroptosis after Salmonella infection: inhibitory effect
[1]; noncanonical inflammasome
  inhibitory effect on pyroptosis after transfected LPS: inhibitory effect
[2]
  concentration at which maximum occupancy of GSDMD was achieved: 25 µM
[3]; GSDMD-deficient BMDMs, kinetic
  cell death (GSDMD-independent, GSDME-dependent): inhibited cell death
[3]; GSDMD-deficient cells, immunoblot
  GSDME processing / generation of GSDME-N: blocked
[3]; WT and GSDMD-/- BMDMs, fumarate 0-50 μM, nigericin 6 hours
  inhibition of GSDMD-driven versus GSDME-driven cell death: comparably
